Experimental data: PubChem BioAssay AID330 (DTP/NCI, 2004)
Toxic doses and inconclusive results are not listed. The calls were made as follows: active = survival T/C of 150% or more; inactive = T/C below 125% in these data.

Test system: P388 leukemia ip, CD2F1 mice, survival T/C
Test: NCI In Vivo Anticancer Drug Screen. Data for tumor model P388 Leukemia (intraperitoneal) in CD2F1 (CDF1) mice
Details: endpoint: median survival time, higher = longer survival
Summary of the method: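 Mice carrying the transplanted tumor received test compound or vehicle. Survival was recorded in each group, and the value is the treated-group measurement divided by that of the vehicle-treated control group.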

[1] = dose: 50.0 mg/kg/injection, schedule: Q01DX005 (ip), vehicle: saline with Tween-80
[2] = dose: 100.0 mg/kg/injection, schedule: Q01DX005 (ip), vehicle: saline with Tween-80
[3] = dose: 200.0 mg/kg/injection, schedule: Q01DX005 (ip), vehicle: saline with Tween-80

Measured: T/C

NCCCN=c1ccc2c3c1c(O)c1c(O)ccc(=O)c1c3[nH]n2CCNCCO
active: dose: 3.12 mg/kg/injection, schedule: Q04DX002 (ip), vehicle: saline 165 % of control | dose: 3.12 mg/kg/injection, schedule: Q04DX002 (ip), vehicle: water 165 % of control | dose: 6.25 mg/kg/injection, schedule: Q04DX002 (ip), vehicle: saline 165 % of control | dose: 6.25 mg/kg/injection, schedule: Q04DX002 (ip), vehicle: water 172 % of control | dose: 9.72 mg/kg/injection, schedule: Q04DX002 (ip), vehicle: water 196 % of control | dose: 12.5 mg/kg/injection, schedule: Q04DX002 (ip), vehicle: saline 190 % of control | dose: 12.5 mg/kg/injection, schedule: Q04DX002 (ip), vehicle: water 177 % of control | dose: 16.2 mg/kg/injection, schedule: Q04DX002 (ip), vehicle: water 199 % of control | dose: 17.0 mg/kg/injection, schedule: Q01DX001 (ip), vehicle: water 268 % of control | dose: 25.0 mg/kg/injection, schedule: Q04DX002 (ip), vehicle: saline 207 % of control | dose: 25.0 mg/kg/injection, schedule: Q04DX002 (ip), vehicle: water 250 % of control | dose: 27.0 mg/kg/injection, schedule: Q04DX002 (ip), vehicle: water 245 % of control | dose: 45.0 mg/kg/injection, schedule: Q04DX002 (ip), vehicle: water 323 % of control | dose: 50.0 mg/kg/injection, schedule: Q04DX002 (ip), vehicle: saline 254 % of control | dose: 50.0 mg/kg/injection, schedule: Q04DX002 (ip), vehicle: water 272 % of control

CC(O)(CCO)CCO
inactive: dose: 25.0 mg/kg/injection, schedule: Q01DX005 (ip), vehicle: water 98 % of control | dose: 50.0 mg/kg/injection, schedule: Q01DX005 (ip), vehicle: water 100 % of control | dose: 100.0 mg/kg/injection, schedule: Q01DX005 (ip), vehicle: water 98 % of control | dose: 200.0 mg/kg/injection, schedule: Q01DX005 (ip), vehicle: water 99 % of control | dose: 400.0 mg/kg/injection, schedule: Q01DX005 (ip), vehicle: water 99 % of control

CCCCCCCCCCCCCCCCSCC(COC)COP(=O)([O-])OCC[N+](C)(C)C (stereo unspecified)
inactive: dose: 1.25 mg/kg/injection, schedule: Q01DX005 (oral), vehicle: saline 109 % of control | dose: 2.5 mg/kg/injection, schedule: Q01DX005 (oral), vehicle: saline 106 % of control | dose: 5.0 mg/kg/injection, schedule: Q01DX005 (oral), vehicle: saline 110 % of control | dose: 10.0 mg/kg/injection, schedule: Q01DX005 (oral), vehicle: saline 110 % of control | dose: 20.0 mg/kg/injection, schedule: Q01DX005 (oral), vehicle: saline 109 % of control | dose: 40.0 mg/kg/injection, schedule: Q01DX005 (oral), vehicle: saline 108 % of control

CC1(C)C(=O)OC(n2cc(F)c(=O)[nH]c2=O)C1=O (stereo unspecified)
inactive: dose: 11.25 mg/kg/injection, schedule: Q04DX002 (ip), vehicle: distilled water + Tween-80 105 % of control | dose: 22.5 mg/kg/injection, schedule: Q04DX002 (ip), vehicle: distilled water + Tween-80 105 % of control | dose: 45.0 mg/kg/injection, schedule: Q04DX002 (ip), vehicle: distilled water + Tween-80 116 % of control | dose: 45.0 mg/kg/injection, schedule: Q04DX002 (ip), vehicle: saline with Tween-80 110 % of control | dose: 90.0 mg/kg/injection, schedule: Q04DX002 (ip), vehicle: distilled water + Tween-80 116 % of control | dose: 360.0 mg/kg/injection, schedule: Q04DX002 (ip), vehicle: distilled water + Tween-80 90 % of control
active: dose: 360.0 mg/kg/injection, schedule: Q04DX002 (ip), vehicle: saline with Tween-80 160 % of control

O=C(O[Si](Cc1ccccc1)(Cc1ccccc1)Cc1ccccc1)N(CCCl)CCCl
inactive: dose: 12.5 mg/kg/injection, schedule: Q04DX002 (ip), vehicle: saline with Tween-80 111 % of control | dose: 25.0 mg/kg/injection, schedule: Q04DX002 (ip), vehicle: saline with Tween-80 120 % of control
active: dose: 25.0 mg/kg/injection, schedule: Q04DX003 (ip), vehicle: saline 154 % of control | dose: 50.0 mg/kg/injection, schedule: Q04DX002 (ip), vehicle: saline with Tween-80 159 % of control | dose: 50.0 mg/kg/injection, schedule: Q04DX003 (ip), vehicle: saline 214 % of control | dose: 100.0 mg/kg/injection, schedule: Q04DX002 (ip), vehicle: saline with Tween-80 180 % of control

O=C(CCSCCCl)Nc1c([N+](=O)[O-])cc([N+](=O)[O-])cc1S(=O)(=O)O
inactive: dose: 3.13 mg/kg/injection, schedule: Q04DX003 (ip), vehicle: DMSO 104 % of control | dose: 6.25 mg/kg/injection, schedule: Q04DX003 (ip), vehicle: DMSO 99 % of control | dose: 12.5 mg/kg/injection, schedule: Q04DX003 (ip), vehicle: DMSO 111 % of control | dose: 25.0 mg/kg/injection, schedule: Q04DX003 (ip), vehicle: DMSO 124 % of control | dose: 25.0 mg/kg/injection, schedule: Q04DX003 (ip), vehicle: olive oil, sesame oil, peanut oil 118 % of control | dose: 50.0 mg/kg/injection, schedule: Q04DX003 (ip), vehicle: DMSO 118 % of control | dose: 75.0 mg/kg/injection, schedule: Q04DX003 (ip), vehicle: DMSO 118 % of control

Cc1cccc(C(=O)O)n1
inactive: dose: 100.0 mg/kg/injection, schedule: Q04DX003 (ip), vehicle: saline 104 % of control | dose: 200.0 mg/kg/injection, schedule: Q04DX003 (ip), vehicle: saline 100 % of control | dose: 400.0 mg/kg/injection, schedule: Q04DX003 (ip), vehicle: saline 109 % of control

Cn1c2c(c(=O)n(C)c1=O)CN(Cc1ccccc1)CN2
inactive: [1] 95 % of control | [2] 95 % of control | [3] 100 % of control

CS(=O)(=O)c1nnc(-c2cccc[n+]2[O-])s1
inactive: dose: 50.0 mg/kg/injection, schedule: Q01DX005 (ip), vehicle: Klucel (hydroxypropylcellulose) (HPC) 116 % of control | dose: 100.0 mg/kg/injection, schedule: Q01DX005 (ip), vehicle: Klucel (hydroxypropylcellulose) (HPC) 114 % of control

O=C(NCc1ccncc1)Nc1ccc(Cc2ccc(NC(=O)NCc3ccncc3)cc2)cc1
inactive: dose: 50.0 mg/kg/injection, schedule: Q01DX009 (ip), vehicle: Klucel (hydroxypropylcellulose) (HPC) 105 % of control | dose: 100.0 mg/kg/injection, schedule: Q01DX009 (ip), vehicle: Klucel (hydroxypropylcellulose) (HPC) 102 % of control | dose: 200.0 mg/kg/injection, schedule: Q01DX009 (ip), vehicle: Klucel (hydroxypropylcellulose) (HPC) 103 % of control

COCc1cn[nH]n1
inactive: dose: 60.0 mg/kg/injection, schedule: Q01DX005 (ip), vehicle: saline 100 % of control | dose: 120.0 mg/kg/injection, schedule: Q01DX005 (ip), vehicle: saline 99 % of control | dose: 240.0 mg/kg/injection, schedule: Q01DX005 (ip), vehicle: saline 104 % of control

O=S1(=O)Cc2c(Br)c(Br)c(Br)c(Br)c2C1
inactive: dose: 12.5 mg/kg/injection, schedule: Q01DX009 (ip), vehicle: saline sonified 109 % of control | dose: 25.0 mg/kg/injection, schedule: Q01DX009 (ip), vehicle: saline sonified 109 % of control | dose: 50.0 mg/kg/injection, schedule: Q01DX009 (ip), vehicle: saline sonified 109 % of control

NC(=O)c1nc2c(Nc3ccccc3Br)nc(N)nc2nc1N
inactive: dose: 100.0 mg/kg/injection, schedule: Q01DX001 (ip), vehicle: saline 104 % of control | dose: 200.0 mg/kg/injection, schedule: Q01DX001 (ip), vehicle: saline 101 % of control | dose: 400.0 mg/kg/injection, schedule: Q01DX001 (ip), vehicle: saline 97 % of control

O=c1[nH]nc(-c2ccccc2)c2c(/C=C/c3ccccc3)onc12
inactive: dose: 60.0 mg/kg/injection, schedule: Q01DX005 (ip), vehicle: saline with Tween-80 100 % of control | dose: 120.0 mg/kg/injection, schedule: Q01DX005 (ip), vehicle: saline with Tween-80 98 % of control

CCOC(=O)c1ccc(NC(=O)Nc2nn[nH]n2)cc1
inactive: dose: 25.0 mg/kg/injection, schedule: Q01DX009 (ip), vehicle: distilled water + Tween-80 105 % of control | dose: 50.0 mg/kg/injection, schedule: Q01DX009 (ip), vehicle: distilled water + Tween-80 115 % of control | dose: 100.0 mg/kg/injection, schedule: Q01DX009 (ip), vehicle: distilled water + Tween-80 108 % of control | dose: 200.0 mg/kg/injection, schedule: Q01DX009 (ip), vehicle: distilled water + Tween-80 100 % of control | dose: 400.0 mg/kg/injection, schedule: Q01DX009 (ip), vehicle: distilled water + Tween-80 108 % of control

CC(=O)n1nc(Cl)c2cccnc2c1=O
inactive: [1] 98 % of control | [2] 99 % of control | [3] 107 % of control
